Square brackets hold non-standard residues; d marks the D form. Peptide text beside a SMILES is read from it. * marks the point of attachment. Dolaproine = CO[C@@H]([C@@H]1CCCN1)[C@@H](C)C(=O)O; Dil = CC[C@H](C)[C@H](NC)[C@@H](CC(=O)O)OC; X1 = C[C@@H](N*)[C@@H](O)c1ccccc1; NMeV = CN[C@H](C(=O)O)C(C)C
Experiments:
tubulin = details: cited from earlier work
From the text: Table 1 A glossary of literature-derived and estimated parameters used for the MMAE PBPK model. | column: Value || Physiological parameters for mice were obtained from our previously published PBPK model. Radius of the tumor blood capillary ( Rcap ), average distance between two capillaries ( Rkrough ), tumor void volume for MMAE ( ε ), P, D, and efflux rate of MMAE from the cells ( kout ) were obtained from the literature.

[1] = following free MMAE administration; cited from earlier work
From the text: Our results regarding the blood cell distribution of MMAE were not consistent with the literature. The MMAE blood-to-plasma ratio is reported to be 2 [4] and 1.53–8.65 [8] in different studies, following free MMAE administration. Whereas, a lower blood-to-plasma ratio has been observed when MMAE-conjugated ADCs were administrated.

CYP3A = details: in vivo and in vitro studies; cited from earlier work
From the text: The PBPK model of MMAE presented here can further be used to assess drug–drug interactions of MMAE containing ADCs. In vivo and in vitro studies indicate that MMAE is a substrate of CYP3A and P-glycoprotein [34]. As such, the polymorphism of CYP3A and P-glycoprotein may affect the PK of MMAE, and consequently the efficacy and toxicity of MMAE-conjugated ADCs. As such, the MMAE PBPK model can serve as a tool to explore drug interactions of ADCs.

[2] = Derivation of in vivo CLint (in vitro-in vivo extrapolation; NCA with well-stirred model); details: mice, 0.1 mg/kg i.v.
[3] = mice, assumed from reported plasma protein binding; cited from earlier work
From the text: Table 1 A glossary of literature-derived and estimated parameters used for the MMAE PBPK model. | column: Value || Each tissue compartment was further divided into the vascular, endothelial cell, interstitial, and cellular sub-compartments, and vascular space was divided into plasma and blood cells, as shown in Figure 1b. We aimed to make the sub-compartment division the same as our previously published platform antibody PBPK model, and thus, one can easily connect MMAE and an antibody PBPK model to build an ADC PBPK model. The rapid distribution of MMAE between plasma, endothelial cells, and interstitial space was assumed, and thus, the distribution rate between these compartments was set as a valu ... || Plasma protein binding plays a vital role in tissue distribution of small molecule drugs. […] Based on the reported mice data, fu,p was assumed to be 0.2, and it was used as a concentration-independent parameter in the PBPK model. Of note, species-dependence of fraction unbound should be considered when further scaling up the current MMAE PBPK model to different species. Based on free hormone hypothesis, it was assumed that ...

[4] = cited from earlier work
From the text: The PBPK model included 16 tissues and a tumor compartment, and all of them were connected via blood flow and arranged anatomically. The tissue compartments included blood, lung, heart, kidney, muscle, skin, liver, brain, adipose, thymus, bone, small intestine, large intestine, spleen, pancreas, and other (i.e., carcass). All the other tissues, except those mentioned, were lumped into the ‘other’ compartment. The arterial blood to each organ was delivered by the efferent blood supplied from the lung, which perfused to each organ and t ... || It is reported that the elimination (metabolism and excretion) of MMAE is mainly through CYP3A4-mediated metabolism, biliary/fecal excretion, or urinary excretion. About 80% of MMAE excretes via feces, and only 6% excretes via urine. Therefore, we assumed that MMAE was eliminated only via metabolism and biliary/fecal excretion from the liver. […] For the derivation of CLint based on in vitro data, the CLint, vitro were estimated using human hepatocyte (3 µL/min/10^6 cells) and human ...

In the case of CC[C@H](C)[C@@H]([C@@H](CC(=O)N1CCC[C@H]1[C@H](OC)[C@@H](C)C(=O)N[C@H](C)[C@@H](O)c1ccccc1)OC)N(C)C(=O)[C@@H](NC(=O)[C@@H](NC)C(C)C)C(C)C [MMAE, Monomethyl auristatin E] (H-[NMeV]V[Dil][Dolaproine]-X1), the “koff, first-order dissociation rate constant between MMAE–tubulin complex” value (tubulin; assumed) is given as 0.000151 s⁻¹, the Kd (tubulin; read-out: equilibrium dissociation rate (KD) of MMAE for free tubulin) is given as 291 nM and the blood-to-plasma ratio [1] is given as 2. The “substrate of CYP3A” value (CYP3A) was “substrate”, the “CLint derived from NCA analysis of in vivo PK data” value [2] was 150 mL/h and the “fu,p, fraction unbound in plasma” value [3] was 0.8. For the same compound, the excretion via feces [4] was “About 80%”, the excretion via urine [4] was 6% and the renal excretion [4] was less than 10%.

From publication PMC8004929, “Whole-Body Pharmacokinetics and Physiologically Based Pharmacokinetic Model for Monomethyl Auristatin E (MMAE)” (Journal of Clinical Medicine, 2021)
